In PMC12392461, “Beyond Estrogenicity: A Comparative Assessment of Bisphenol A and Its Alternatives in In Vitro Assays Questions Safety of Replacements” (Environmental Science & Technology, 2025):
Read-outs that look alike come from different tables or passages of the source.

Columns and labels:
[1] = test system: Tox21 assays; experiment: Re-evaluated Tox21 data (Adamovsky et al.), REPBPA and SRbaseline; conditions: for SRbaseline: Specificity Ratio;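 on all read-outs here: published Tox21 results reanalysed with a revised model predicting baseline toxicity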
Source text: We also reanalyzed the Tox21 data of Adamovsky et al. with the updated baseline toxicity prediction model (Table S2).

[2] = test system: ERα; conditions: cited from earlier work
[3] = test system: PPARγ; parameters: method as in Crosthwait et al. 2025; Sun et al. 2025; conditions: ref Crosthwait et al. 2025; Sun et al. 2025; cited from earlier work
[4] = cited from earlier work
[5] = test system: Tox21 assays; conditions: cited from earlier work
[6] = test system: ERα; experiment: Literature ERα reporter gene assays (comparison); assay type: cell-based; conditions: for EC10, approx.: in M (unit assumed)
Protocol: S5.4: Comparison with literature data for ERα reporter gene assays
To improve data comparability with our own results we converted reported EC₅₀ to EC₁₀ by dividing by 9, which is the ratio for log-logistic concentration-response curves with a hillslope of 1 (Figure S9a). Additionally, REPBPA values were calculated to enable a more consistent evaluation. Methodological differences between studies must be considered, as Reiniger et al.24 used the YES assay, while Goksøyr et al.25 applied ERα from fish (Figure S9b).
Cyan symbols highlight the ER-UAS-bla GripTite (this study and Tox21GenBLA).
(1 picture or pasted object on this page, not shown here)

[7] = test system: neuronal stem cells; conditions: ref Liang et al.; cited from earlier work
[8] = Tox21BLA, ref Adamovsky et al. 2024
[9] = Tox21Luc, ref Adamovsky et al. 2024

SMILES: CC(C)(c1ccc(O)cc1)c1ccc(O)cc1 [BPA, 4,4'-(Propane-2,2-diyl)diphenol, reference compound]
- REPBPA ([1]; ATG_NRF2_ARE_CIS_up, Relative Effect Potency): 1.00
- SRbaseline ([1]; ATG_NRF2_ARE_CIS_up): 10.51
- REPBPA ([1]; TOX21_AR_LUC_MDAKB2_Antagonist_0,5nM_R1881, Relative Effect Potency): 1.00
- SRbaseline ([1]; TOX21_AR_LUC_MDAKB2_Antagonist_0,5nM_R1881): 32.80
- REPBPA ([1]; TOX21_CAR_Agonist, Relative Effect Potency): 1.00
- SRbaseline ([1]; TOX21_CAR_Agonist): 57.94
- REPBPA ([1]; TOX21_CAR_Antagonist, Relative Effect Potency): 1.00
- SRbaseline ([1]; TOX21_CAR_Antagonist): 145.9
- SRbaseline ([1]; TOX21_PPARg_BLA_antagonist_ratio): 10.39
- REPBPA [1, 8]: 1.00E+00
- REPBPA [1, 9]: 1.00E+00
- EC50 ([2]; estrogen receptor from Atlantic cod (Gadus morhua), ref Goksøyr et al 2024): 1.9 µM
- EC50 ([2]; ref Kojima et al 2019): 0.33 µM
- EC50 ([2]; ref Pelch et al 2019): 1.2 µM
- Efficacy % ([2]; ref Pelch et al 2019): 110.30%
- EC50 ([2]; ref Reiniger et Oehlmann 2024): 2.26 µM
- Efficacy % ([2]; ref Reiniger et Oehlmann 2024): 9.42E+01%
- PPARγ transactivation reported in the literature [3]: No agonism was detected
- log (KBSAw /(Lw/Lprotein)) (neutral species) ([4]; exp. + log(1.36 kg/L), ref Endo and Goss 2011): 3.57
- predicted or literature experimental log Kow ([4]; experimental, ref Hansch, 1995): 3.32
- log D lipw ([4]; pH 7.4, ref Kwon et al. 2006): 3.65
- log (DBSAw /(Lw/Lprotein) (pH7.4)) ([4]; ref Endo and Goss 2011): 3.01
- log (KBSAw /(Lw/kgprotein)) (neutral species) ([4]; ref Endo and Goss 2011): 3.44
- log (Dlipw/(Lwater/kglipid) or (Lwater/Llipid)) (pH 7.4) ([4]; ref Kwon et al. 2006): 3.65
- EC10 ([5]; ATG_NRF2_ARE_CIS_up, re-evaluated Tox21 data, ref Adamovsky et al 2024): 7.56e-06 M
- EC10 ([5]; TOX21_AR_LUC_MDAKB2_Antagonist_0,5nM_R1881, re-evaluated Tox21 data, ref Adamovsky et al 2024): 2.42e-06 M
- EC10 ([5]; TOX21_CAR_Agonist, re-evaluated Tox21 data, ref Adamovsky et al 2024): 1.37e-06 M
- EC10 ([5]; TOX21_CAR_Antagonist, re-evaluated Tox21 data, ref Adamovsky et al 2024): 5.45e-07 M
- EC10 ([5]; TOX21_PPARg_BLA_antagonist_ratio, re-evaluated Tox21 data, ref Adamovsky et al 2024): 7.65e-06 M
- EC10 [5, 8]: 5.92E-07
- EC10 [5, 9]: 5.63E-08
- EC10, approx. ([6]; Atlantic cod estrogen receptor, approximated from literature EC50, ref Goksøyr et al 2024): ~2.11E-07
- REPBPA ([6]; Atlantic cod estrogen receptor, ref Goksøyr et al 2024): 1.00E+00
- EC10, approx. ([6]; approximated from literature EC50, ref Pelch et al 2019): ~1.33E-07
- EC10, approx. ([6]; approximated from literature EC50, ref Reiniger et Oehlmann 2024): ~2.51E-07
- EC10, approx. ([6]; approximated from literature values, ref Kojima et al 2019): ~3.65E-08
- REPBPA ([6]; relative estrogenic potency vs BPA, ref Kojima et al 2019): 1.00E+00
- REPBPA ([6]; relative estrogenic potency vs BPA, ref Pelch et al 2019): 1.00E+00
- REPBPA ([6]; relative estrogenic potency vs BPA, ref Reiniger et Oehlmann 2024): 1.00E+00
- concentration with significant reduction in average neurite length [7]: 1 nM
